Source: patent EP0170121A1, “2-Hydroxy-3-aryloxypropyl or 2-hydroxy-2-benzofuranyl ethyl tertiary amine having an anti-hyperglycaemic and/or anti-obesity activity” (BEECHAM GROUP PLC, priority 1984, dated 1986)
Structures can show the parent of a compound that is named as a salt.

Key:
Female CD1 mice = experiment: Effect on energy expenditure of mice (oxygen consumption, oral dosing); type: in vivo; settings: p.o. in water, percentage of the rate of energy expenditure of the mice dosed with water, dose differs per compound (Dose mg/kg p.o.); for Mean Energy Expenditure (0-3h): 0-3h after dosing; for Mean Energy Expenditure (0-21h): 0-21h after dosing
Procedure: Female CD1 mice each weighing approximately 24 g were given food and water ad lib before and during the experiment. The compounds were dissolved in water and these solutions were administered orally to each of 12 mice. A further 12 mice were dosed orally with water. The mice were placed in groups of threes in boxes through which air was drawn and the oxygen content of the air leaving the boxes was measured. The energy expenditure of the mice was calculated for 3 and 21 hours after dosing from the volume of air leaving the boxes and its oxygen content, following the principles described by J.B. de V. Weir, J. Physiol. (London) 109, 1-9 (1949). The results are expressed as a percentage of the rate of energy expenditure of the mice dosed with water.

Female CFLP mice = experiment: Hypoglycaemic activity: subcutaneous glucose load, area under blood glucose curve; type: in vivo; settings: female CFLP mice fasted 24 hours; compound orally 30 minutes before glucose 1 g/kg s.c.; 2 hour period; versus control mice given water; dose differs per compound (Dose µmol/kg)
Procedure: Female CFLP mice, weighing approximately 25 g, were fasted for 24 hours prior to the study. The compounds under study were administered orally as an aqueous solution to each of 6 mice. 30 minutes later a blood sample (20 µl) was obtained from the tail for the analysis of blood glucose. Immediately after taking this blood sample, glucose (1 g/kg body weight) was administered subcutaneously to each mouse. 6 mice were given water as a control. Blood samples were then obtained from each mouse at 30 minute intervals for 120 minutes.
Compounds that produced a significant (p<0.05) reduction of blood glucose, compared with control mice given water, at any time interval, were considered active. The area under the blood glucose curve over the 2 hour period after the administration of the glucose was calculated for each compound and compared with the value for control animals.

Isolated Rat Atria = experiment: Effect of compounds on isolated rat atria (rate of right atrium, tension of left atrium); type: cell-based, Sprague-Dawley male rats; settings: Krebs solution 32°C, up to 3x10-^5M; for effect on tension (electrically paced left atrium): isolated rat left atrium; for effect on rate (spontaneously beating right atrium): isolated rat right atrium
Procedure: Sprague-Dawley male rats (300-400 g) are killed and the right and left atria dissected out independently and mounted on a combined tissue holder/electrode. The tissues are then immersed in a glass bath containing Krebs solution maintained at 32 °C. The rate of the spontaneously beating right atrium (via an isometric tranducer and a ratemeter) and the tension of the electrically paced left atrium (via an isometric transducer) are recorded on an M19 chart recorder.
After an initial stabilization period, the tissues are exposed to a maximal concentration of isoprenaline (10^-6M). The tissues are then washed several times until rate and tension return to baseline level. A dose-response curve to the test compound is then carried out.

Female BALB/c mice = experiment: Anti-obesity activity: weight of parametrial fat pads after 3 days of compound in the diet; type: in vivo; settings: compound in diet for 3 days, dose differs per compound (Dose mg/kg diet), mean of 9 values
Procedure: Female BALB/c mice were trained to feed on powdered oxoid for 1 week. They were then housed in threes and the compound under study was added to the diet for 3 days. Food was removed at 09.00h and the mice were killed at 11.00h. The parametrial fat pads were weighed as pairs. The result is a mean of 9 values.

Male Sprague-Dawley rats = experiment: Effect on energy expenditure of rats (oxygen consumption, oral dosing); type: in vivo; settings: deprived of food, p.o. in water, percentage of the rate of energy expenditure of the rats dosed with water, dose differs per compound (Dose mg/kg p.o.); for Mean Energy Expenditure (0-3h): 0-3h after dosing; for Mean Energy Expenditure (0-21h): 0-21h after dosing
Procedure: Male Sprague-Dawley rats each weighing between 170-200 g were deprived of food for 16 hours before, and during the experiment. Water was provided ad lib at all times. The compounds were administered orally in water to 3 or 4 rats. A further 4 rats were dosed orally with water. The rats were placed in boxes through which air was drawn and the oxygen content of the air leaving the boxes was measured. The energy expenditure of the rats was calculated for 3 hours and for 21 hours after dosing from the volume of air leaving the boxes and its oxygen content, following the principles described by J.B. de V. Weir, J. Physiol. (London) 109, 1-9 (1949). The results are expressed as a percentage of the rate of energy expenditure of the rats dosed with water.

Row | Structure (SMILES) | Mean Energy Expenditure (0-3h) (Female CD1 mice) | Mean Energy Expenditure (0-21h) (Female CD1 mice) | % Reduction in Area under Blood Glucose Curve (Female CFLP mice) | effect on tension (electrically paced left atrium) (Isolated Rat Atria) | effect on rate (spontaneously beating right atrium) (Isolated Rat Atria) | Percentage reduction in weight of parametrial fat pads compared with controls (Female BALB/c mice) | Mean Energy Expenditure (0-3h) (Male Sprague-Dawley rats) | Mean Energy Expenditure (0-21h) (Male Sprague-Dawley rats)
1 | CC(Cc1ccc(OCC(N)=O)cc1)N(CC(O)COc1ccccc1)CC(O)c1cccc(Cl)c1.Cl (stereo not shown) [Example 8, 4-[2-[N-[2-(3-Chlorophenyl)-2-hydroxyethyl]-N-[2-hydroxy-3-phenoxypropyl]amino]propyl]phenoxyacetamide, hydrochloride] | 158 percentage | 122 percentage | 50% | no effect | no effect | 39 Percentage | – | –
2 | COC(=O)COc1ccc(CC(C)N(CC(O)COc2ccc(CC(N)=O)cc2)CC(O)c2cccc(Cl)c2)cc1 (stereo not shown) [Example 11, Methyl 4-[2-[N-[2-(3-chlorophenyl)-2-hydroxyethyl]-N-[2-hydroxy-3-(4-carboxamidomethyl)phenoxypropyl]amino]propyl] phenoxyacetate, hydrochloride] | 120 percentage | 112 percentage | 57% | – | – | 16 Percentage | 136 percentage | 111 percentage
3 | COC(=O)c1ccc(C[C@@H](C)N(C[C@H](O)COc2ccccc2)C[C@H](O)c2ccccc2)cc1 [Example 4, Methyl 4-[(R)-2-[N-[(R)-2-hydroxy-2-phenethyl]-N-[(S)-2-hydroxy-3-phenoxypropyl]amino]propyl]benzoate, hydrochloride, monohydrate] | 145 percentage | 120 percentage | 12% | no effect | no effect | 25 Percentage | 110 percentage | 119 percentage
4 | COC(=O)c1ccc(C[C@@H](C)N(C[C@H](O)COc2ccccc2)C[C@H](O)COc2ccccc2)cc1 [Example 1, Methyl 4-[(R)-2-[bis-[(S)-2-hydroxy-3-phenoxypropyl]amino]propyl]benzoate] | 132 percentage | 107 percentage | 28% | no effect | no effect | – | 115 percentage | 114 percentage
5 | CCOC(=O)COc1ccc(C[C@@H](C)N(C[C@H](O)COc2ccccc2)C[C@H](O)COc2ccccc2)cc1 [Example 17, Ethyl 4-[(R)-2-[bis-[(S)-2-hydroxy-3-phenoxypropyl]amino]propyl]phenoxyacetate, hydrochloride, hemihydrate] | – | – | – | – | – | 37 Percentage | 120 percentage | 105 percentage
6 | C[C@H](Cc1ccc(OCC(N)=O)cc1)N(C[C@H](O)COc1ccccc1)C[C@H](O)COc1ccccc1 [Example 14, 4-[(R)-2-[Bis-[(S)-2-hydroxy-3-phenoxypropyl]amino]propyl] phenoxyacetamide, hydrochloride] | 140 percentage | 112 percentage | 20% | no effect | no effect | – | 127 percentage | 117 percentage
7 | COC(=O)c1ccc(CC(C)N(CC(O)COc2ccccc2)CC(O)c2ccc(O)c(CO)c2)cc1 (stereo not shown) [Example 9, Methyl 4-[2-[N-[2-hydroxy-2-[4-hydroxy-3-hydroxymethylphenyl]ethyl]-N-[2-hydroxy-3-phenoxypropyl]amino]propyl] benzoate] | 111 percentage | 106 percentage | 34% | – | – | 13 Percentage | – | –
8 | C[C@H](Cc1ccc(OCCN)cc1)N(C[C@H](O)COc1ccccc1)C[C@H](O)c1ccccc1 [Example 20, 4-[(R)-2-[N-[(R)-2-Hydroxy-2-phenethyl]-N-[(S)-2-hydrpxy-3-phenoxypropyl]amino]propyl]phenoxyethylamine, dihydrochloride, hydrate] | 146 percentage | 120 percentage | 40% | – | – | 15 Percentage | 112 percentage | 110 percentage
9 | CCOC(=O)COc1ccc(C[C@@H](C)N(C[C@@H](O)COc2ccccc2)C[C@H](O)c2ccccc2)cc1 [Example 23, Ethyl 4-[(R)-2-[N-[(R-2-hydroxy-2-phenethyl]-N-[(R)-2-hydroxy-3-phenoxypropyl]amino]propyl]phenoxyacetate, hydrochloride] | – | – | – | – | – | 31 Percentage | 129 percentage | 111 percentage
10 | C[C@H](Cc1ccc(OCC(N)=O)cc1)N(C[C@H](O)COc1ccccc1)C[C@H](O)c1ccccc1 [Example 16, 4-[(R)-2-[N-[(R)-2-Hydroxy-2-phenethyl]-N-[(S)-2-hydroxy-3-phenoxypropyl]amino]propyl]phenoxyacetamide, hydrochloride, hemihydrate] | 151 percentage | 113 percentage | – | – | – | 27 Percentage | 141 percentage | 119 percentage
11 | CCOC(=O)COc1ccc(C[C@@H](C)N(C[C@H](O)COc2ccccc2)C[C@H](O)c2cccc(Cl)c2)cc1 [Example 18, Ethyl 4-[(R)-2-[N-[(R)-2-(3-chlorophenyl)-2-hydroxyethyl]-N-[(S)-2-hydroxy-3-phenoxypropyl]amino]propyl]phenoxyacetate, hemifumarate] | – | – | 45% | – | – | 21 Percentage | 126 percentage | 109 percentage
12 | CCOC(=O)COc1ccc(C[C@@H](C)N(C[C@H](O)COc2ccccc2)C[C@H](O)c2ccccc2)cc1 [Example 15, Ethyl 4-[(R)-2-[N-[(R)-2-hydroxy-2-phenethyl]-N-[(S)-2-hydroxy-3-phenoxypropyl]amino]propyl]phenoxyacetate, hydrochloride] | 144 percentage | 120 percentage | 42% | no effect | no effect | 32 Percentage | 135 percentage | 118 percentage
